Structures can show the parent of a compound that is named as a salt.
Experiments:
DYRK1A = molecular target: T1, DYRK1A (Homo sapiens, UniProt Q13627); assay: DYRK1A in vitro kinase assay (ADP-Glo); assay type: biochemical; settings: ATP 70 μM (Km), substrate 3 μM, enzyme 2 nM or 0.7 nM, 30 min, rt
T1 construct: purchased Carna Bioscence (Carna Biosciences) 04-130
Method: The compounds of the present invention were tested for their inhibitory activity against DYRK1A and DYRK1B kinases once or several times. When tested more than once, the data are reported herein as average value, wherein the average value, also referred to as the mean value, represents the sum of obtained values divided by the number of times tested.
DYRK-inhibitory activity of the compounds of the present invention was tested using the ADP-Glo™ assay as described in the following paragraphs. The procedure for determining the IC50 values with the ADP-Glo™ assay in in vitro kinase assays consists of two parts:
1. Kinase reaction performed under optimized conditions;
2. Detection of ADP as a product of the reaction using ADP-Glo™ system (Promega).
The tested compounds indicated in Table 5 below were dissolved in DMSO, then transferred to the V-bottom PP plate to perform nine serial dilutions (in order to obtain dose-response curves) in 25% DMSO, as indicated in Table 5 below.
The optimized conditions for performing DYRK1A in vitro kinase assay were as follows:
For compound testing, the following protocol was used: two mixes were prepared on ice, Mix 1 containing substrate, ATP and reaction buffer and Mix 2 containing reaction buffer and the kinase. 15 μL per well of Mix 1 was transferred to wells of a 96-well plate. Next, 2.5 μL of the pre-diluted compound to be tested was added to Mix 1, followed by the addition of 12.5 μL of Mix 2. Total reaction volume was 30 μL per well. The experiment was performed in duplicate for each data point being examined. Dose response curve for the positive control was carried out on each assay plate by adding the reference inhibitory compound staurosporine. For each test, three controls were also included: (i) 30 μL of the reaction mixture containing: reaction buffer, ATP, kinase, DMSO without substrate (quasi-positive control); (ii) 30 μL of the reaction mixture containing reaction buffer, substrate, ATP, DMSO without kinase (background control); (iii) 30 μL of the reaction mixture containing reaction buffer, substrate, kinase, ATP, DMSO (vehicle control). Final concentration of DMSO in the reaction was 2%. To detect the ADP amount produced during the kinase reaction, the commercially available kit ADP-Glo™ Kinase Assay (Promega, cat. No # V9103) was used. The protocol used for the detection was based on the Technical Bulletin of the ADP-Glo™ Kinase Assay (Promega) and was adapted to 96-well plate containing 30 μL reaction mixture as explained below.
30 μL of ADP-Glo™ Reagent was added to each well of a 96 well plate containing 30 μL of reaction mixture to terminate the kinase reaction and deplete the remaining ATP. The plate was incubated for 60 minutes on a shaker at rt. 60 μL of Kinase Detection Solution was then added to each well of 96-well plate containing 60 μL of the solution to convert ADP to ATP and to allow the newly synthesized ATP to be measured using a luciferase/luciferin reaction (ratio of kinase reaction volume to ADP Glo™ Reagent volume to Kinase Detection Solution volume was maintained at 1:1:2). The plate was incubated for 40 minutes on a shaker at rt, protected from light. Luminescence was measured in the plate reader, wherein the luminescent signal is proportional to the ADP concentration produced and thus correlates with kinase activity.
After data normalization to controls (complete reaction mix and no-substrate control) and transforming X values (test compound concentrations) using: X=log(X), IC50 values were determined, using the GraphPad Prism 6.0 [log(agonist) vs. normalized response—Variable slope].

DYRK1B = molecular target: T2, DYRK1B (Homo sapiens, UniProt Q9Y463); assay: DYRK1B in vitro kinase assay (ADP-Glo); assay type: biochemical; settings: ADP-Glo assay, ATP 15 μM (Km), substrate 7 μM, enzyme 1 nM or 0.3 nM, 1 h, rt; read-out: DYRK1B IC50
T2 construct: purchased Carna Bioscence (Carna Biosciences) 04-131
Method: The compounds of the present invention were tested for their inhibitory activity against DYRK1A and DYRK1B kinases once or several times. When tested more than once, the data are reported herein as average value, wherein the average value, also referred to as the mean value, represents the sum of obtained values divided by the number of times tested. DYRK-inhibitory activity of the compounds of the present invention was tested using the ADP-Glo™ assay as described in the following paragraphs. The procedure for determining the IC50 values with the ADP-Glo™ assay in in vitro kinase assays consists of two parts: […] Kinase reaction performed under optimized conditions; 2. Detection of ADP as a product of the reaction using ADP-Glo™ system (Promega). The tested compounds indicated in Table 5 below were dissolved in DMSO, then transferred to the V-bottom PP plate to perform nine serial dilutions (in order to obtain dose-response curves) in 25% DMSO, as indicated in Table 5 below. The optimized conditions for performing DYRK1B in vitro kinase assay were as follows: [table] For compound testing, the following protocol was used: two mixes were prepared on ice, Mix 1 containing substrate, ATP and reaction buffer and Mix 2 containing reaction buffer and the kinase. 15 μL per well of Mix 1 was transferred to wells of a 96-well plate. […] Total reaction volume was 30 μL per well. The experiment was performed in duplicate for each data point being examined. Dose response curve for the positive control was carried out on each assay plate by adding the reference inhibitory compound staurosporine. For each test, three controls were also included: (i) 30 μL of the reaction mixture containing: reaction buffer, ATP, kinase, DMSO without substrate (quasi-positive control); (ii) 30 μL of the reaction mixture containing reaction buffer, substrate, ATP, DMSO without kinase (background control); (iii) 30 μL of the reaction mixture containing reaction buffer, substrate, kinase, ATP, DMSO (vehicle control). Final concentration of DMSO in the reaction was 2%. To detect the ADP amount produced during the kinase reaction, the commercially available kit ADP-Glo™ Kinase Assay (Promega, cat. No # V9103) was used. The protocol used for the detection was based on the Technical Bulletin of the ADP-Glo™ Kinase Assay (Promega) and was adapted to 96-well plate containing 30 μL reaction mixture as explained below. 30 μL of ADP-Glo™ Reagent was added to each well of a 96 well plate containing 30 μL of reaction mixture to terminate the kinase reaction and deplete the remaining ATP. The plate was incubated for 60 minutes on a shaker at rt. 60 μL of Kinase Detection Solution was then added to each well of 96-well plate containing 60 μL of the solution to convert ADP to ATP and to allow the newly synthesized ATP to be measured using a luciferase/luciferin reaction (ratio of kinase reaction volume to ADP Glo™ Reagent volume to Kinase Detection Solution volume was maintained at 1:1:2). The plate was incubated for 40 minutes on a shaker at rt, protected from light. Luminescence was measured in the plate reader, wherein the luminescent signal is proportional to the ADP concentration produced and thus correlates with kinase activity. After data normalization to controls (complete reaction mix and no-substrate control) and transforming X values (test compound concentrations) using: X=log(X), IC50 values were determined, using the GraphPad Prism 6.0 [log(agonist) vs. normalized response—Variable slope].

T2 sequence (Q9Y463 whole entry): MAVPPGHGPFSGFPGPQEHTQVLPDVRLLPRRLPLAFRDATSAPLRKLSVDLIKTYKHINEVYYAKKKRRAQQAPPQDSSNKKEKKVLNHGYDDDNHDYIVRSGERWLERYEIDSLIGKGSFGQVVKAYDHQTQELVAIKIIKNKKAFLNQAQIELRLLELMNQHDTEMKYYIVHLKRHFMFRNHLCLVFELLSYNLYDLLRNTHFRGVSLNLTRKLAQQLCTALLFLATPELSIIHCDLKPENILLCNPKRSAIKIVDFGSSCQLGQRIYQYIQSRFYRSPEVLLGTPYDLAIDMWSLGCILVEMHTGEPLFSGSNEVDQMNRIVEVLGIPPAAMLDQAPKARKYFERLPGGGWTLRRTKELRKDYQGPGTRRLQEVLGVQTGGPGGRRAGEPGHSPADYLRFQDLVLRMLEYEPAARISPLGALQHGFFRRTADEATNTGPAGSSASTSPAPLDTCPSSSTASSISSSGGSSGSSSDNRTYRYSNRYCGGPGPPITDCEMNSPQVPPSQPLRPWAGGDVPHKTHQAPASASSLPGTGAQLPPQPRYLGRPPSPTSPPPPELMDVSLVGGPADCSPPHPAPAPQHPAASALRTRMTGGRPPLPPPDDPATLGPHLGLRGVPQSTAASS

Row | IC50 (DYRK1A) [nM] | IC50 (DYRK1B) [nM] | SMILES
1 | < 10 | < 10 | NCCCNC(=O)c1cnc2[nH]cc(-c3cc(F)c4ncccc4c3)c2c1 [Example 35, N-(3-Aminopropyl)-3-(8-fluoroquinolin-6-yl)-1H-pyrrolo[2,3-b]pyridine-5-carboxamide hydrochloride]
2 | > 100 | 10 to 100 | FC(F)(F)Oc1cc(-c2c[nH]c3ncccc23)cc2cccnc12 [Example 14, 6-{1H-Pyrrolo[2,3-b]pyridin-3-yl}-8-(trifluoromethoxy)quinoline]
3 | < 10 | < 10 | CNC(=O)c1cnc2[nH]cc(-c3cc(F)c4ncccc4c3)c2c1 [Example 30, 3-(8-Fluoroquinolin-6-yl)-N-methyl-1H-pyrrolo[2,3-b]pyridine-5-carboxamide]
4 | < 10 | < 10 | Fc1cc(-c2c[nH]c3ncccc23)cc2cccnc12 [Example 13, 8-Fluoro-6-{1H-pyrrolo[2,3-b]pyridin-3-yl}quinoline]
5 | > 100 | > 100 | Cc1cc(-c2c[nH]c3ncccc23)cc2c(-c3ccccc3)ccnc12 [Example 17, 8-Methyl-4-phenyl-6-{1H-pyrrolo[2,3-b]pyridin-3-yl}quinoline]
6 | < 10 | < 10 | N[C@H]1CCCN(c2ccnc3ccc(-c4c[nH]c5ncccc45)cc23)C1 [Example 3, (3S)-1-(6-{1H-Pyrrolo[2,3-b]pyridin-3-yl}quinolin-4-yl)piperidin-3-amine]
7 | < 10 | < 10 | c1cnc2[nH]cc(-c3ccc4nccc(-c5ccncc5)c4c3)c2c1 [Example 7, 4-(Pyridin-4-yl)-6-{1H-pyrrolo[2,3-b]pyridin-3-yl}quinoline]
8 | < 10 | < 10 | Fc1cc(-c2c[nH]c3ncccc23)cc2c(-c3cccnc3)ccnc12 [Example 19, 8-Fluoro-4-(pyridin-3-yl)-6-{1H-pyrrolo[2,3-b]pyridin-3-yl}quinoline]

The next lines start with the molecule.

Row | SMILES | IC50 (DYRK1A) [nM] | IC50 (DYRK1B) [nM]
9 | C=CCN(C)C(=O)c1cnc2[nH]cc(-c3cc(F)c4nccc(-c5cccnc5)c4c3)c2c1 [Example 38, 3-[8-Fluoro-4-(pyridin-3-yl)quinolin-6-yl]-N-methyl-N-(prop-2-en-1-yl)-1H-pyrrolo[2,3-b]pyridine-5-carboxamide] | 10 to 100 | < 10
10 | CNC(=O)c1cnc2[nH]cc(-c3cc(F)c4nccc(-c5cnccc5C)c4c3)c2c1 [Example 44, N-Methyl-3-[8-fluoro-4-(4-methylpyridin-3-yl)quinolin-6-yl]-1H-pyrrolo[2,3-b]pyridine-5-carboxamide] | < 10 | < 10
11 | Nc1cnc2ccc(-c3c[nH]c4ncc(C(=O)NCc5cccnc5)cc34)cc2c1 [Example 61, 3-(3-Aminoquinolin-6-yl)-N-(pyridin-3-ylmethyl)-1H-pyrrolo[2,3-b]pyridine-5-carboxamide] | < 10 | < 10
12 | CC(=O)Nc1cnc2ccc(-c3c[nH]c4ncc(C(=O)NCc5cccnc5)cc34)cc2c1 [Example 62, 3-(3-Acetamidoquinolin-6-yl)-N-(pyridin-3-ylmethyl)-1H-pyrrolo[2,3-b]pyridine-5-carboxamide] | < 10 | < 10
13 | N[C@@H]1CCCN(c2ccnc3c(F)cc(-c4c[nH]c5ncc(C(=O)NCc6cccnc6)cc45)cc23)C1 [Example 48, 3-{4-[(3R)-3-Aminopiperidin-1-yl]-8-fluoroquinolin-6-yl}-N-(pyridin-3-ylmethyl)-1H-pyrrolo[2,3-b]pyridine-5-carboxamide hydrochloride] | < 10 | < 10
14 | C=CCCCc1ccnc2ccc(-c3c[nH]c4ncc(CN(C)CC=C)cc34)cc12 [Example 21, Methyl({3-[4-(pent-4-en-1-yl)quinolin-6-yl]-1H-pyrrolo[2,3-b]pyridin-5-yl}methyl)(prop-2-en-1-yl)amine] | 10 to 100 | < 10
15 | CNC(=O)c1cnc2[nH]cc(-c3ccc4ncc(N)c(N5CCC[C@H](N)C5)c4c3)c2c1 [Example 54, 3-{3-Amino-4-[(3S)-3-aminopiperidin-1-yl]quinolin-6-yl}-N-methyl-1H-pyrrolo[2,3-b]pyridine-5-carboxamide hydrochloride] | < 10 | < 10
16 | O=C(NCc1cccnc1)c1cnc2[nH]cc(-c3cc(F)c4nccc(-c5cccnc5)c4c3)c2c1 [Example 47, 3-[8-Fluoro-4-(pyridin-3-yl)quinolin-6-yl]-N-(pyridin-3-ylmethyl)-1H-pyrrolo[2,3-b]pyridine-5-carboxamide] | < 10 | < 10
17 | C=CCN(C)C(=O)c1cnc2[nH]cc(-c3ccc4nccc(Cl)c4c3)c2c1 [Example 20, 3-(4-Chloroquinolin-6-yl)-N-methyl-N-(prop-2-en-1-yl)-1H-pyrrolo[2,3-b]pyridine-5-carboxamide] | 10 to 100 | < 10
18 | CNC(=O)c1cnc2[nH]cc(-c3ccc4nccc(N5CCOCC5)c4c3)c2c1 [Example 23, N-Methyl-3-[4-(morpholin-4-yl)quinolin-6-yl]-1H-pyrrolo[2,3-b]pyridine-5-carboxamide] | < 10 | < 10
19 | CC(=O)N1CCC(Nc2c(N)cnc3ccc(-c4c[nH]c5ncccc45)cc23)CC1 [Example 66, 1-{4-[(3-Amino-6-{1H-pyrrolo[2,3-b]pyridin-3-yl}quinolin-4-yl)amino]piperidin-1-yl}ethan-1-one] | < 10 | < 10
